Test results reported in article PMC5520195 (Acta Pharmacologica Sinica, 2017).

How the values were obtained:
[1] = Plasma pharmacokinetics of DOX after iv administration; format: in vivo; conditions: DOX in plasma, BALB/c mice, 5 mg DOX/kg
[2] = tested on: 4T1.2 mouse breast cancer cells; experiment: MTT cytotoxicity assay; format: cell-based; conditions: 4T1.2 cells, 72 h

AUC0–infinity [1]: 2930 ng·h/mL | CL [1]: 28.8 mL/min/kg | Cmax [1]: 6270 ng/mL
SMILES: COc1cccc2c1C(=O)c1c(O)c3c(c(O)c1C2=O)C[C@@](O)(C(=O)CO)C[C@@H]3O[C@H]1C[C@H](N)[C@H](O)[C@H](C)O1 [DOX, doxorubicin]
cytotoxicity (MTT) [2]: cytotoxic effect on tumor cells in a concentration-dependent manner
